ChEMBL document CHEMBL1201862, “PubChem BioAssay data set” (2004)
Structures can show the parent of a compound that is named as a salt. The source made the active and inactive calls.

How the values were obtained:
[1] = A549 cell cytotoxicity, dose response, cytotoxicity control, plate reader, cherry-pick, antagonist series (AID 743412); assay type: functional, cell-based
[2] = HepG2 cell cytotoxicity, dose response, cytotoxicity control, plate reader, cherry-pick, antagonist series (AID 743416); assay type: functional, cell-based
[3] = LGR2 antagonists, dose response, cell-based, HEK293, CRE-luciferase reporter, cherry pick, set 2 (AID 743343); assay type: functional;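 further: transfected cells were stimulated with diluted bursicon conditioned medium after compound addition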
[4] = MC4R antagonists, dose response, counter-screen for LGR2 antagonist project, cell-based, plate reader, cherry pick (AID 743444); assay type: functional;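 further: transfected HEK 293 cells stimulated with alpha-MSH peptide; potency of inhibitors of the alpha-MSH evoked signal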
[5] = P. falciparum Dd2 growth inhibitors, dose response, SYBR Green, dry powder samples, set 9 (AID 1159568); assay type: functional, cell-based
[6] = P. falciparum 3D7-ScDHODH growth inhibitors, dose response, SYBR Green, dry powder samples (AID 1159570); assay type: functional, cell-based;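 further: parasite growth measured after 72 hours of compound exposure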
[7] = HepG2 cell cytotoxicity, dose response, cytotoxicity control, plate reader, dry powder samples (AID 1159569); assay type: functional, cell-based;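 further: inhibitor potency with signal falling toward the positive control level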
[8] = P. falciparum Dd2 growth inhibitors, dose response, SYBR Green, cherry-picked samples (AID 1159567); assay type: functional, cell-based
[9] = P. falciparum Dd2 growth inhibitors, dose response, SYBR Green, dry powder samples (AID 1159566); assay type: functional, cell-based;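 further: potency for growth inhibition with lower SYBR green DNA signal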
[10] = P. falciparum ATP4 D1247Y mutant growth inhibitors, dose response, NITD609-resistant line, SYBR Green, dry powder (AID 1159571); assay type: functional, cell-based;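 further: parasites synchronized at ring stage by sorbitol before testing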
[11] = HepG2 cell cytotoxicity, dose response, cytotoxicity control, cherry-picked samples (AID 1159577); assay type: functional, cell-based
[12] = Concentration-dependent survival of SW480 colon cancer line, luminescence detection with CellTiter-Glo, half-maximal inhibitory concentration (AID 1117338); assay type: functional
[13] = RKO cell viability reduction, dose response, CellTiter-Glo luminescence (AID 1117322); assay type: functional
[14] = cytotoxicity toward HCT116 cells – cell-based, CellTiter-Glo luminescence, IC50, dose response (AID 1117332); assay type: functional; details: HCT-116
[15] = cytotoxicity toward Colo320 cells – cell-based, CellTiter-Glo luminescence, IC50, dose response (AID 1117334); assay type: functional; details: COLO 320
[16] = cytotoxicity toward HT-29 cells – cell-based, CellTiter-Glo luminescence, IC50, dose response (AID 1117330); assay type: functional
[17] = CellTiter-Glo luminescent dose response of DLD-1 viability loss (AID 1117352); assay type: functional
[18] = HCT116 cell viability decrease, GSK3B pretreatment – CellTiter-Glo, IC50, dose response (AID 1117339); assay type: functional; details: HCT-116
[19] = SNU-C1 cell viability reduction, dose response, CellTiter-Glo luminescence (AID 1117323); assay type: functional, cell-based
[20] = half-maximal inhibitory concentration for glucagon-like peptide-1 release, STC-1 cell line, dose-response (AID 1117345); assay type: functional, cell-based
[21] = Glucagon-like peptide 1 release potency, NCI-H716 cell line, dose-response, half-maximal inhibitory concentration (AID 1117344); assay type: functional, cell-based

For `C[C@@H]1CN([C@@H](C)CO)C(=O)c2cccc(NC(=O)c3ccc(-c4nccs4)cc3)c2O[C@@H]1CN(C)C(=O)Nc1ccc(C(F)(F)F)cc1`, the AC50 [1] was 25.5 µM (active), the AC50 [2] was 33.2 µM (active) and the AC50 [3] was 43.7 µM (active). For the same compound, the AC50 [4] was 54.1 µM (active) and the AC50 [5] was 2.16 µM (active).
For `C[C@@H]1CN([C@@H](C)CO)C(=O)c2ccccc2-c2ccccc2CO[C@H]1CN(C)C(=O)Nc1cccc(Cl)c1Cl`, the AC50 [6] was 0.0978 µM (active), the AC50 [7] was > 100 µM (inactive) and the AC50 [8] was 0.418 µM (active). The AC50 [9] was 0.107 µM (active) and the AC50 [10] was 0.437 µM (active).
With `Cc1ccc(S(=O)(=O)N(C)C[C@H]2Oc3cc(C#CC4CCCC4)ccc3S(=O)(=O)N([C@@H](C)CO)C[C@H]2C)cc1` the AC50 [5] was 3.42 µM (active).
For `C[C@@H]1CN([C@H](C)CO)S(=O)(=O)c2ccc(C#Cc3ccncc3)cc2O[C@H]1CN(C)S(=O)(=O)c1ccc(F)cc1`, the AC50 [6] was 0.682 µM (active), the AC50 [7] was 3.66 µM (active) and the AC50 [8] was 2.17 µM (active). For the same compound, the AC50 [9] was 1.14 µM (active), the AC50 [11] was > 39 µM (inactive) and the AC50 [10] was 1.17 µM (active).
In the case of `Clc1ccc(C(Cn2ccnc2)OCc2ccc(Sc3ccccc3)cc2)c(Cl)c1` (configuration not stated) [FENTICONAZOLE], the IC50 [12] is reported as 7.44 µM (inactive), the IC50 [13] is reported as 6.14 µM (inactive) and the IC50 [14] is reported as 7.71 µM (inactive). The IC50 [15] was 7.06 µM (inactive), the IC50 [16] was > 20 µM (inactive) and the IC50 [17] was 7.76 µM (inactive). The IC50 [18] was 6.77 µM (inactive).
For `O=C(NC1CCN(CCc2c[nH]c3ccccc23)CC1)c1ccccc1` [INDORAMIN HYDROCHLORIDE], the IC50 [12] was > 20 µM (inactive), the IC50 [13] was > 20 µM (inactive) and the IC50 [19] was > 20 µM (inactive). The IC50 [15] was > 20 µM (inactive), the IC50 [16] was > 20 µM (inactive) and the IC50 [17] was > 20 µM (inactive). For the same compound, the IC50 [18] was > 20 µM (inactive).
For `OC1(c2ccc(Cl)c(C(F)(F)F)c2)CCN(CCCC(c2ccc(F)cc2)c2ccc(F)cc2)CC1` [PENFLURIDOL], the IC50 [13] was 0.971 µM (active), the IC50 [14] was 1.85 µM (active) and the IC50 [19] was 0.168 µM (active). The IC50 [20] was > 40 µM (inactive), the IC50 [15] was 0.962 µM (active) and the IC50 [16] was 0.946 µM (active). For the same compound, the IC50 [17] was 1.14 µM (active) and the IC50 [21] was 8.45 µM (inactive).
With `CN1CCN(c2cc3c(nn2)Oc2ccccc2N3C)CC1` [PIPOFEZINE] the IC50 [12] was > 20 µM (inactive), the IC50 [13] was > 20 µM (inactive) and the IC50 [14] was > 20 µM (inactive). For the same compound, the IC50 [19] was > 20 µM (inactive), the IC50 [15] was > 20 µM (inactive) and the IC50 [16] was > 20 µM (inactive). For the same compound, the IC50 [17] was > 20 µM (inactive) and the IC50 [18] was > 20 µM (inactive).
